Experiment: Thermogravimetry of the temperature of decomposition of indigo (FIGS. 3 and 6)
Format: physicochemical
Protocol: […] This peak is offset to around 540° C. when the mixture has been heated at 18 (unheated), 120, 180, 280 and 350° C. during production of the composite.
In addition, during the step of cleaning by heating at temperatures of 18 (unheated), 180, 280 and 320° C. for 20 minutes, a peak characteristic of the presence of indigo in the external medium is observed, as these molecules begin to decompose at 280° C. with a maximum rate at 340° C. This phenomenon is possible owing to surface interactions between the indigo and the sepiolite, which reduce the temperature of decomposition of the indigo, which in a pure product begins at 300° C. with a maximum at 390° C. However, this peak disappears after the cleaning by heating at 350° C. for 20 minutes. […] Also, at 520° C., a peak characteristic of the presence of indigo in the sepiolite tunnels is observed. This cleaning by heating step in this type of preparation enables only the molecules present in the tunnels to be preserved.

O=C1/C(=C2\Nc3ccccc3C2=O)Nc2ccccc21 [indigo]
temperature of maximum rate of decomposition of indigo (indigo in the external medium of 23% indigo/sepiolite mixtures): 340 °C
temperature at which decomposition of indigo begins (indigo in the external medium of 23% indigo/sepiolite mixtures (surface interactions with sepiolite)): 280 °C
temperature of the thermogravimetric peak of indigo (indigo in the sepiolite tunnels of 23% indigo/sepiolite mixtures (FIG. 6)): around 520 °C
maximum temperature of decomposition of indigo (indigo incorporated in the sepiolite tunnels (FIG. 3)): 540 °C
maximum temperature of decomposition of indigo (native indigo (FIG. 3)): around 375 °C
temperature at which decomposition of indigo begins (pure product): 300 °C
temperature of maximum decomposition of indigo (pure product): 390 °C

Reference: US20110011310A1, “METHOD OF MANUFACTURING A COMPOSITE BASED ON COMPLEXES OF CONTROLLED STABILITY” (UNIVERSITE DE NICE SOPHIA-ANTIPOLIS, priority 2007, published 2011)
